Values quoted from earlier work, collected in US20030153514A1, “Remedies for cancer” (priority 2000, published 2003).

Test system: NKT cells (Vα24Vβ11)
Settings: cancer-bearing mice

In the case of `CCCCCCCCCCCCCCCCCCCCCCCCCC(=O)N[C@@H](CO[C@H]1O[C@H](CO)[C@H](O)[C@H](O)[C@H]1O)[C@H](O)[C@H](O)CCCCCCCCCCCCCC` [α-galactosylceramide], the NKT cells is given as “activated”, the disappearance of cancer is given as “not observed” and the metastasis is given as “suppressed”.
